This note sets out measurements from patent US8518956B2, “1-(1-(2-ethoxyethyl)-3-ethyl-7-(4-methylpyridin-2-ylamino)-1H-pyrazolo[4,3-d]pyrimidin-5-yl) piperidine-4-carboxylic acid and salts thereof” (priority 2005, dated 2013).

One assay deals with T1, PDE5 enzyme (Homo sapiens, UniProt O76074).
T1 construct: The PDE5 enzyme isolated from human platelets; from tissue; host or cells: human platelets
In words: Method 1A: Alternative Human Platelet PDE5 Enzyme Inhibition Scintillation Proximity Assay. As to conditions: METHOD 1a: PDE5 IC50, Table D, WO2004096810 examples. In kind it is biochemical. Here is the method: Method 1A: Alternative Human Platelet PDE5 Enzyme Inhibition Scintillation Proximity Assay
PDE5 IC50 Assay: 96-Well Microtiter Plate Format
• Buffer A: 20 mM Tris-HCl, 5 mM MgCl2, pH 7.4 • Buffer B: 2 mg/ml BSA in Buffer A (enzyme buffer) • cGMP substrate: Final concentration of 50 nM in assay The amount of ^3H-labeled substrate added depends upon the specific activity of [^3H]cGMP, and it is diluted in Buffer A. • PDE enzyme: Prepared in Buffer B. The dilution factor is determined by enzyme activity. • SPA beads: 4 mg/ml suspension prepared in dH2O.
Stocks of standard and test compound are prepared at 2 mM in 100% DMSO. […] 27 μl of Buffer A are added to the wells of the assay plates. From the dilution plate, 3 μl of diluted compound is delivered in duplicate or 3 μl of 100% DMSO (for positive and negative controls) are added. 30 μl of enzyme are added. For the negative control wells, Buffer B is substituted in place of the enzyme. 30 μl of labeled substrate are added to all wells.
After incubating for 60 minutes at room temperature, the reaction is stopped with the addition of 30 μl of the yttrium silicate beads. These beads are dense and require constant agitation while being added to the plate. The plates are sealed and shaken on a plate shaker for fifteen minutes to allow the beads to bind the GMP product.
After allowing the beads to settle for 30 minutes, plates are read on a NXT TopCount scintillation counter and the data are analyzed as follows. Percent inhibition values are calculated using the means of the 0% and 100% controls on each plate. The estimates of the 4-parameters of the logistic, sigmoid dose-response model are then calculated using the well-level percent inhibition value for the compound.
For orientation: SPA uses beads or plates that emit light when radiolabelled molecules are held near them.

A further assay addresses PDE6 enzyme. As to conditions: read-out: METHOD 2: PDE6 IC50; Table F, WO2004096810 examples. The text has this: Method 2: Human Retina PDE6 Enzyme Inhibition Scintillation Proximity Assay (SPA)
The inhibition of PDE6 enzyme activity by a test compound can be measured in accordance with the in vitro assay of Method 1, but instead using semi-purified PDE6 enzyme isolated from human, bovine or canine retina in place of PDE5 enzyme. […] [3H]GMP binds to yttrium silicate SPA beads and is detected by scintillation counting. • PDE6 Purification: PDE6 can be isolated and purified from the following: Soluble rod PDE6/Rod Outer Segment PDE6 from Bovine eyes (Charles River Ltd, France); Cone PDE6 from Canine eyes (LAS); or Soluble rod and Cone PDE6 from Human eyes (I.I.A.M.).
While supporting the eye with the cornea uppermost, make a small incision through the conjunctiva below the level of the iris. The incision should be sufficient to allow the humor to escape through the cut. Using fine scissors, cut around the cornea to enable it to be lifted off as a flap. Using a small hook, engage the lens and gently pull it out of orbit, taking care not to pull out the retina at the same time. Allow the retina to drop down of its own accord to the base of the orbit.
Lift the retina with care and locate the optic nerve. Cut through the optic nerve and transfer the retina to a small dish containing a few ml of homogenisation buffer. Gently float the retina out on the surface of the buffer and remove any obvious pigmented material from the iris. Place the retina in a second dish with clean buffer to remove last traces of pigment and then transfer to a 50 ml Corning Costar centrifuge tube (Sigma) and keep on ice. • PDE6 Isolation and Purification from Retina: Allow 2 mls of the homogenisation buffer per bovine retina and 1 ml per retina for dog and human. Homogenise using hand-held homogeniser 3×5 second bursts cooling on ice between each burst. Filter homogenate through two layers of surgical gauze. Spin at 100,000 g for 60 minutes at 4° C. […] Run through FPLC (Pharmacia FPLC LKB/FRAC-100, Pharmacia) or aliquot and store in liquid nitrogen as needed. Method 2A: Alternative Human Retina PDE6 Enzyme Inhibition Scintillation Proximity Assay (SPA)

What is called IC50 is the midpoint of a concentration-inhibition curve.

Turning to `Cc1ccnc(Nc2nc(N3CCC(C(=O)O)CC3)nc3c(C)nn(CCOCC(F)(F)F)c23)c1` [WO2004096810 Example 261], the IC50 was 0.115 nM against PDE5 enzyme and 58.8 nM on PDE6 enzyme.
Regarding `Cc1cc(Nc2nc(N3CCC(C(=O)O)CC3)nc3c(C)nn(CCOCC(F)(F)F)c23)ncn1` [WO2004096810 Example 262], the values for the IC50 against PDE5 enzyme and on PDE6 enzyme were 0.0755 nM and 47.7 nM, respectively.
Consider `CCc1nn(CCOCC(F)(F)F)c2c(Nc3cc(C)ncn3)nc(N3CCC(C(=O)O)CC3)nc12` [WO2004096810 Example 263], for which the results for the IC50 on PDE5 enzyme and on PDE6 enzyme were 0.0197 nM and 25.3 nM, respectively.
